# Patent US12509451B2, “Heteroaryl amide inhibitors of CD38” (NAPA THERAPEUTICS LTD., priority 2020, dated 2025)
# Experiments:
# [1] = biological target: T1, recombinant mouse CD38 Protein (Mus musculus, UniProt P56528); test: Fluorescence-based NAD+ cyclase activity assay with mouse recombinant CD38 protein (Assay 4); format: biochemical; conditions: read-out: Assay 4 Arithmetic mean IC50
# T1 construct: purchased R&D System
# T1 sequence (P56528 1-304): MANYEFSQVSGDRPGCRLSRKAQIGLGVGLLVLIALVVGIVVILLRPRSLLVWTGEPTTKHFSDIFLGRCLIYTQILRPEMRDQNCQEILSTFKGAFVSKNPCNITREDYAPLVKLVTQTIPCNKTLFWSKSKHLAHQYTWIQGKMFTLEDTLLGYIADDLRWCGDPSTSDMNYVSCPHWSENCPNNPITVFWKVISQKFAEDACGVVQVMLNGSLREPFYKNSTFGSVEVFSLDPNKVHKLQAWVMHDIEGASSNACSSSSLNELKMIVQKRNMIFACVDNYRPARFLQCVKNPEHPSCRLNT
# Protocol: This protocol was modified from de Oliveira et al. (2018) supra.
# (§1) NAD+ cyclase activity of the human recombinant CD38 protein treated with test compounds was measured using a fluorescence-based assay. Briefly, recombinant mouse CD38 Protein (R&D System) was resuspended in 44 μl/well of Sucrose-Tris Buffer (Sucrose 0.25 M, Tris pH 7.4 40 mM) and plated in a 96-well black plate (CORNING) at a density of 32 ng/well.
# (§2) Each test compound was received in a powder state and dissolved in DMSO as a 25 mM stock solution. Each test compound was serially diluted in order to generate a dose-response curve. The dilution series of each test compound in DMSO was prepared at 50 times the concentrations to be assayed. Each test compound was diluted to generate a 5-fold dilution series of 8 concentrations from 100 μM to 32 nM in order to assay 8 final concentrations ranging from 2 μM to 0.64 nM. One μl of the 50× concentration compound series was added to each well of the plate containing 125 ng of protein in Sucrose-Tris buffer.
# Each plate had the following intra plate controls: 3 wells containing cells treated with vehicle only (DMSO), 3 wells of cells treated with the reference compounds 78c at a final concentration of 500 nM and 2 wells containing only Sucrose-Tris buffer (used as a background value).
# The reaction was started adding nicotinamide guanine dinucleotide (NGD+) (Sigma Aldrich) to reach a final concentration of 150 µM. The samples were excited at 337-15 nm and the emission of fluorescence was measured at 442-20 nm at 37° C. every minute for 1 hr in a Clariostar® microplate reader (BMG LABTECH). NAD+ cyclase activity was calculated as the slope of the linear portion of the fluorescence-time curve using the MARS data analysis software (BMG LABTECH). The data were uploaded in the Collaborative Drug Design (CDD) Software and for each compound the IC50 was calculated by the software. Each compound was tested in 3 independent experiments on 3 separate days to establish the reproducibility of the results. For each plate, the z-factor was also calculated as a plate quality using the CDD software.
# [2] = biological target: T1, recombinant mouse CD38 Protein; test: Fluorescence-based NAD+ hydrolase activity assay with mouse recombinant CD38 protein (Assay 5); format: biochemical; conditions: read-out: Assay 5 Arithmetic mean IC50
# Protocol: This protocol was modified from the following references: Muller et al. (1983); Schultz et al. (2018); Matalonga et al. (2017); and de Oliveira et al. (2018), supra.
# as §1, with “hydrolase” for “cyclase”, “mouse” for “human”, “96 well” for “96-well”, “2.5” for “32”
# as §2, with “20” for “100”, “0.256” for “32”, “400 nM” for “2 μM”, “25.6 pM.” for “0.64 nM.”, “2.5” for “125”
# Each plate had the following intra plate controls: 3 wells containing cells treated with vehicle only (DMSO), 3 wells of cells treated with the reference compounds 78c at a final concentration of 50 nM and 2 wells containing only Sucrose-Tris buffer (used as a background value).
# The reaction was started adding nicotinamide 1,N^6-etheno-adenine dinucleotide (Sigma Aldrich) to reach a final concentration of 80 µM. The samples were excited at 321-15 nm and the emission of fluorescence was measured at 410-20 nm at 37° C. every minute for 1 hr in a Clariostar Microplate® reader (BMG LABTECH). NAD+ hydrolase activity was calculated as the slope of the linear portion of the fluorescence-time curve using the MARS data analysis software (BMG LABTECH). The data were uploaded in the Collaborative Drug Design (CDD) Software and for each compound the IC50 was calculated by the software. Each compound was tested in 3 independent experiments on 3 separate days to establish the reproducibility of the results. For each plate, the z-factor was also calculated as a plate quality using the CDD software.
structure (smiles),measurement,setting,value
CC1(Oc2cc(C(=O)Nc3ccnc(C(F)(F)F)c3)nc(-n3ccnc3)n2)COC1 [Compound 41],IC50,[1],51 to 1000 nM
same,IC50,[2],1 to 50 nM
